Test results reported in the supplement of paper PMC10307832.

Tests used:
Assay in all cases: relative viability (nuclei count vs DMSO), 5 days (fraction); higher = more cells survive
Bortezomib + Alpelisib = compound: CC(C)C[C@H](NC(=O)[C@H](Cc1ccccc1)NC(=O)c1cnccn1)B(O)O [Bortezomib] + Cc1nc(NC(=O)N2CCC[C@H]2C(N)=O)sc1-c1ccnc(C(C)(C)C(F)(F)F)c1 [Alpelisib] (partner 2 µM)
In short: (§1)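 Medians of duplicate plates are given as relative viability. That measure is the nuclei count in treated wells divided by the count in vehicle wells. Counts were taken on 4× images of lung cancer cell lines in 1536-well plates, 5 days after pin-tool dosing the day after seeding with one drug alone or a fixed anchor-drug dose plus five library-drug doses (not always all listed) in √10 steps.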

Bortezomib + Olaparib = compound: CC(C)C[C@H](NC(=O)[C@H](Cc1ccccc1)NC(=O)c1cnccn1)B(O)O [Bortezomib] + O=C(c1cc(Cc2n[nH]c(=O)c3ccccc23)ccc1F)N1CCN(C(=O)C2CC2)CC1 [Olaparib] (partner 8 µM)
In short: as §1

Bortezomib + Tozasertib = compound: CC(C)C[C@H](NC(=O)[C@H](Cc1ccccc1)NC(=O)c1cnccn1)B(O)O [Bortezomib] + Cc1cc(Nc2cc(N3CCN(C)CC3)nc(Sc3ccc(NC(=O)C4CC4)cc3)n2)n[nH]1 [Tozasertib] (partner 0.1 µM)
In short: as §1

Obatoclax + Luminespib = compound: COC1=CC(c2cc3ccccc3[nH]2)=N/C1=C\c1[nH]c(C)cc1C [Obatoclax] + CCNC(=O)c1noc(-c2cc(C(C)C)c(O)cc2O)c1-c1ccc(CN2CCOCC2)cc1 [Luminespib] (partner 0.01 µM)
In short: as §1

Row | Cell Line | relative viability (Bortezomib + Alpelisib; first compound 0.002 µM) | relative viability (Bortezomib + Alpelisib; first compound 0.006325 µM) | relative viability (Bortezomib + Alpelisib; first compound 0.02 µM) | relative viability (Bortezomib + Olaparib; first compound 0.0002 µM) | relative viability (Bortezomib + Olaparib; first compound 0.000632 µM) | relative viability (Bortezomib + Olaparib; first compound 0.002 µM) | relative viability (Bortezomib + Olaparib; first compound 0.006325 µM) | relative viability (Bortezomib + Olaparib; first compound 0.02 µM) | relative viability (Bortezomib + Tozasertib; first compound 0.0002 µM) | relative viability (Bortezomib + Tozasertib; first compound 0.000632 µM) | relative viability (Bortezomib + Tozasertib; first compound 0.002 µM) | relative viability (Bortezomib + Tozasertib; first compound 0.006325 µM) | relative viability (Bortezomib + Tozasertib; first compound 0.02 µM) | relative viability (Obatoclax + Luminespib; first compound 0.01 µM) | relative viability (Obatoclax + Luminespib; first compound 0.03162 µM) | relative viability (Obatoclax + Luminespib; first compound 0.1 µM) | relative viability (Obatoclax + Luminespib; first compound 0.3162 µM) | relative viability (Obatoclax + Luminespib; first compound 1 µM) | relative viability (Bortezomib + Alpelisib; first compound 0.000632 µM) | relative viability (Bortezomib + Alpelisib; first compound 0.0002 µM)
1 | EPLC-272H | 1.09 | 0.943 | 0.115 | 0.9 | 0.746 | 0.171 | 0.0682 | 0.0612 | 0.297 | 0.258 | 0.221 | 0.1 | 0.101 | 0.377 | 0.235 | 0.393 | 0.189 | 0.168 | – | –
2 | LK-2 | 0.263 | 0.256 | 0.27 | 0.699 | 0.695 | 0.714 | 0.169 | 0.123 | 0.182 | 0.191 | 0.173 | 0.157 | 0.161 | 0.183 | 0.23 | 0.231 | 0.189 | 0.164 | 1.01 | –
3 | UMC-11 | 1.09 | 0.223 | 0.136 | 0.441 | 0.398 | 0.348 | 0.189 | 0.133 | 0.19 | 0.208 | 0.197 | 0.229 | 0.204 | 0.993 | 0.968 | 1.05 | 1.07 | 0.428 | 0.994 | 0.842
4 | HCC-827 | 0.8 | 0.149 | 0.126 | 0.725 | 0.611 | 0.357 | 0.14 | 0.138 | 0.418 | 0.447 | 0.419 | 0.12 | 0.0981 | 0.676 | 0.575 | 0.6 | 0.706 | 0.76 | 0.948 | 1.12
5 | NCI-H1993 | 0.708 | 0.462 | 0.484 | 1.01 | 1.01 | 0.679 | 0.363 | 0.398 | 0.595 | 0.635 | 0.576 | 0.454 | 0.448 | 0.868 | 0.869 | 0.845 | 0.615 | 0.863 | 0.617 | 0.697
6 | NCI-H647 | 0.881 | 0.0394 | 0.0242 | 0.518 | 0.374 | 0.148 | 0.0277 | 0.0271 | 0.297 | 0.19 | 0.203 | 0.0209 | 0.0248 | 0.128 | 0.186 | 0.179 | 0.21 | 0.114 | 1.24 | 1.07
7 | NCI-H460 | 0.515 | 0.125 | 0.0093 | 0.355 | 0.422 | 0.392 | 0.0694 | 0.0397 | 0.386 | 0.366 | 0.616 | 0.304 | 0.0187 | 0.0359 | 0.0371 | 0.0282 | 0.0268 | 0.019 | 0.455 | 0.419
8 | EMC-BAC-2 | 0.788 | 0.17 | 0.117 | 0.469 | 0.486 | 0.487 | 0.258 | 0.185 | 0.249 | 0.274 | 0.403 | 0.171 | 0.174 | 1.2 | 1.19 | 1.16 | 1.08 | 1.02 | 0.73 | 0.657
9 | NCI-H23 | 0.829 | 0.116 | 0.109 | 0.362 | – | 0.247 | 0.0989 | 0.0819 | 0.306 | 0.366 | 0.352 | 0.111 | 0.107 | 0.21 | 0.193 | 0.195 | 0.185 | 0.191 | 0.72 | –
10 | A-427 | 1.05 | 1.11 | 0.0762 | 0.711 | 0.727 | 0.759 | 0.188 | 0.151 | 0.212 | 0.263 | 0.193 | 0.105 | 0.102 | 0.952 | 0.962 | 0.916 | 0.775 | 0.674 | 1.03 | 0.991
11 | ABC-1 | 0.372 | 0.233 | 0.245 | 0.897 | 0.922 | 0.374 | 0.342 | 0.424 | 0.162 | 0.213 | 0.181 | 0.16 | 0.226 | 0.551 | 0.555 | – | 0.322 | 0.397 | 1.08 | 1
12 | NCI-H322M | 0.713 | 0.731 | 1.38 | 0.755 | 0.704 | 0.825 | 0.586 | 0.452 | 0.468 | – | 0.442 | 0.278 | 0.308 | 0.949 | 0.809 | – | 0.758 | 0.39 | – | 0.771
13 | COR-L23 | 0.444 | 0.0416 | 0.0432 | 0.37 | 0.375 | 0.203 | 0.0613 | 0.0717 | 0.198 | 0.198 | 0.153 | 0.049 | 0.0491 | 0.556 | 0.638 | 0.45 | 0.178 | 0.115 | 0.698 | 0.825
14 | SK-MES-1 | 0.825 | 0.475 | 0.206 | 0.649 | 0.839 | 0.521 | 0.171 | 0.159 | 0.935 | 0.933 | 0.882 | 0.315 | 0.127 | 0.737 | 0.837 | 0.677 | 0.298 | 0.252 | 0.723 | 0.86
15 | NCI-H2085 | – | 0.279 | 0.233 | 0.8 | 0.802 | 0.688 | 0.232 | 0.211 | 0.873 | 0.872 | 0.697 | 0.302 | 0.281 | 0.389 | 0.432 | 0.44 | 0.283 | 0.347 | 1.09 | 0.898
16 | NCI-H2087 | 0.635 | 0.0664 | 0.0561 | 0.634 | 0.672 | 0.286 | 0.0419 | 0.0226 | 0.236 | 0.276 | 0.19 | 0.0648 | 0.0487 | 0.164 | 0.166 | 0.161 | 0.121 | 0.121 | 1.05 | 0.953
